{"source": "patent US4557930A", "about": "“Anticholesteremic anion exchange resins” (Mitsubishi Petrochemical Co., Ltd., priority 1983, dated 1985)", "test_system": "descending aorta; plasma lipids", "test": "In vivo test by rabbit (arteriosclerosis inhibition test): plasma lipids and aorta", "design": "species or system rabbit (New Zealand)", "excerpt": "Eight to fourteen male New Zealand species rabbits, weighing about 2.2 Kg, were used per each group. To the first group of rabbits was given 40 g/Kg-body weight/day of a mixture of a feed produced by Oriental Yeast Co. mixed with 0.67% of cholesterol for 12 weeks, and to the rabbits of the second and third groups were further given CR - 1 and Clofibrate, respectively.\nCR - 1 and Clofibrate employed was mixed in the feed at levels of 1.25% and 0.25%, respectively.\nDuring the tests, the plasma lipid concentrations were measured, and after 12 weeks, all the rabbits were sacrificed by bleeding. Descending aorta were subjected to incision and the conditions of arteriosclerosis were observed.", "key": {"[1]": {"conditions": "0.67% cholesterol intake, 6 weeks, CR - 1 1.25%, Clofibrate 0.25% in feed"}, "[2]": {"conditions": "0.67% cholesterol intake, 12 weeks, CR - 1 1.25%, Clofibrate 0.25% in feed"}}}
{"smiles": "CCOC(=O)C(C)(C)Oc1ccc(Cl)cc1", "note": "[Clofibrate]", "values": [{"measurement": "Total plasma: Cholesterol", "setting": "[1]", "value": "1810 ± 124", "unit": "mg/dL"}, {"measurement": "Total plasma: Triglyceride", "setting": "[1]", "value": "337.1 ± 66.1", "unit": "mg/dL"}, {"measurement": "Total plasma: β-Lipoprotein", "setting": "[1]", "value": "5038 ± 450", "unit": "mg/dL"}, {"measurement": "Aorta: Area of blood vessel at arteriosclerosis", "setting": "[2]", "value": "8.0 ± 1.4", "unit": "cm^2"}, {"measurement": "Aorta: Inhibition of arteriosclerosis", "setting": "[2]", "value": 18.0, "unit": "%"}, {"measurement": "Aorta: Total area", "setting": "[2]", "value": "17.7 ± 0.5", "unit": "cm^2"}, {"measurement": "Total plasma: Cholesterol", "setting": "[2]", "value": "1895 ± 117", "unit": "mg/dL"}, {"measurement": "Total plasma: Triglyceride", "setting": "[2]", "value": "336.8 ± 39.7", "unit": "mg/dL"}, {"measurement": "Total plasma: β-Lipoprotein", "setting": "[2]", "value": "4385 ± 574", "unit": "mg/dL"}, {"measurement": "Aorta: Percentage of arteriosclerosis", "setting": "(Area at arteriosclerosis)/(Total blood vessel area) × 100, 0.67% cholesterol intake, 12 weeks", "value": "44.2 ± 7.0", "unit": "%"}]}
